Assays:
cells L929 [1] = assay: Cytotoxicity experiment, extraction method, relative growth rate of cells; details: absorbance, higher RCR = lower toxicity, crosslinker compounds
cells L929 [2] = assay: Median inhibitory concentration (IC50) of crosslinker compounds in cells L929; assay type: cell-based; details: Mus musculus, L929, read-out: IC50 (median inhibitory concentration)
Protocol: A cytotoxicity experiment is achieved through detecting the propagation rate of cells referring to standards for biological evaluation-in vitro cell toxicity test of medical instruments. In the experiment, an extraction method is adopted, a cell toxicity test is performed by adopting cells L929, a relative growth rate (RCR) of the cells is calculated through assaying the absorbance value by using an enzyme-linked immunoassay instrument, and the higher the RCR, the better the biocompatibility and the lower the toxicity.

Compound | RCR (relative growth rate of the cells), polyglycol diglycidyl ether crosslinkers (cells L929 [1]) | IC50 (cells L929 [2])
C(COCCOCC1CO1)OCCOCCOCC1CO1 (stereo not drawn) [Ia, tetraethylene glycol diglycidyl ether] | 62% | 127 µM
C(COCCOCCOCCOCCOCCOCC1CO1)OCCOCCOCCOCCOCCOCCOCC1CO1 (stereo not drawn) [Ib, dodecaethylene glycol diglycidyl ether] | 89% | 2300 µM
C(COCCOCCOCCOCCOCCOCCOCCOCCOCCOCCOCCOCC1CO1)OCCOCCOCCOCCOCCOCCOCCOCCOCCOCCOCCOCCOCC1CO1 (stereo not drawn) [Ic, tetracosaethylene glycol diglycidyl ether] | 89% | 1880 µM

From patent US11191870B2, “Gel of sodium hyaluronate cross-linked by polyethylene glycol epoxy derivative for injection and preparation method thereof” (JENKEM TECHNOLOGY CO., LTD. (BEIJING), priority 2016, dated 2021)
